Test results reported in publication PMC5007978, “A chemical with proven clinical safety rescues Down-syndrome-related phenotypes in through DYRK1A inhibition” (Disease Models & Mechanisms, 2016).

Key:
[1] = system: calcineurin-NFAT signaling; assay: NFAT-RE promoter luciferase reporter assay (NRE-Luc) in 293T cells; format: cell-based; settings: IM and PMA (10 nM), 1, 3 and 10 μM
Protocol: Fig. 5. […] Firefly luciferase activities were measured using One-Glo reagents. Luciferase activity in the sample with reporter plasmid alone was set to 1, and the relative luciferase activities were calculated. Means±s.d. were determined from two independent experiments.
Treatment with IM and phorbol 12-myristate 13-acetate (PMA) induced a dramatic increase in luciferase activity (∼20 fold) as a result of the nuclear translocation of NFATc1 and the subsequent transcriptional activation (Fig. 5B). In this situation, the overexpression of DYRK1A suppressed the stimulatory effect of IM and PMA by 75%, resulting in a 4.5-fold increase in luciferase activity compared with that of the control (Fig. 5B).
The firefly luciferase reporter assay was performed using a One-Glo Assay System (Promega) according to the manufacturer's instructions. The transcriptional activity of NFATc1 in 293T cells was measured with a reporter vector (pGL4.30 luc2P/NFAT-RE/Hygro) (Promega) that expresses the firefly luciferase gene under the control of an NFAT-RE promoter. 293T cells were transfected with the DYRK1A-expressing plasmid and reporter plasmid. On the next day, cells were treated with IM (2.5 μM) and phorbol-12-myristate-13-acetate (10 nM) along with the indicated amounts of inhibitors. Cells were further incubated for 8 h and then cell lysates were harvested to measure luciferase activity.

DYRK1A [2] = target: T1, DYRK1A (Homo sapiens, UniProt Q13627); design: expressed in transfected cells; host or cells: 293T cells; method as in Ogawa et al., 2010; settings: ref Ogawa et al., 2010; cited from earlier work
[3] = system: mnb-overexpressing Drosophila; assay: Wing vein (LV5) defect rescue in mnb-overexpressing flies (MS1096-gal4); format: in vivo, Drosophila melanogaster
DYRK3 = target: T2, DYRK3 (Homo sapiens, UniProt O43781); assay: In vitro kinase assay, recombinant human DYRK3 (Life Technologies); format: biochemical
T2 construct: purchased Life Technologies (Kinase Profiler service)
T2 sequence (O43781 1-588): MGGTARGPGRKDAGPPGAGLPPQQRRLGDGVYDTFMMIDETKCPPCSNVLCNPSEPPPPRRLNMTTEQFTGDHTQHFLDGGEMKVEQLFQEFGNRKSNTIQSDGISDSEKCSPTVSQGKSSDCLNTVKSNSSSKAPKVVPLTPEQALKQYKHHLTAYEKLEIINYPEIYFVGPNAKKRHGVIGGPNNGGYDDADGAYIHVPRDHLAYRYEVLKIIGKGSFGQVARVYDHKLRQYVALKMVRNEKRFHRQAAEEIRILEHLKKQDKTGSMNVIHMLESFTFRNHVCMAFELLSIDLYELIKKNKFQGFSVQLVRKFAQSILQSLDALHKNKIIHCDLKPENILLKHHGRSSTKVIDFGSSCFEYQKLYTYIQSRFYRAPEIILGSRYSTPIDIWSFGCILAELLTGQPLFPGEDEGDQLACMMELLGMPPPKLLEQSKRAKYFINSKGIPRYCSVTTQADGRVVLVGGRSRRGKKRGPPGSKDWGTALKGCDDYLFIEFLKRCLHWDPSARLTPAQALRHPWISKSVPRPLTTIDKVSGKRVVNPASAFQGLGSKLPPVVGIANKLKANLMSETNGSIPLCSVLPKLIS

DYRK4 = target: T3, DYRK4 (Homo sapiens, UniProt Q9NR20); assay: In vitro kinase assay, recombinant human DYRK4 (Life Technologies); format: biochemical
T3 construct: purchased Life Technologies (Kinase Profiler service)
T3 sequence (Q9NR20 1-520): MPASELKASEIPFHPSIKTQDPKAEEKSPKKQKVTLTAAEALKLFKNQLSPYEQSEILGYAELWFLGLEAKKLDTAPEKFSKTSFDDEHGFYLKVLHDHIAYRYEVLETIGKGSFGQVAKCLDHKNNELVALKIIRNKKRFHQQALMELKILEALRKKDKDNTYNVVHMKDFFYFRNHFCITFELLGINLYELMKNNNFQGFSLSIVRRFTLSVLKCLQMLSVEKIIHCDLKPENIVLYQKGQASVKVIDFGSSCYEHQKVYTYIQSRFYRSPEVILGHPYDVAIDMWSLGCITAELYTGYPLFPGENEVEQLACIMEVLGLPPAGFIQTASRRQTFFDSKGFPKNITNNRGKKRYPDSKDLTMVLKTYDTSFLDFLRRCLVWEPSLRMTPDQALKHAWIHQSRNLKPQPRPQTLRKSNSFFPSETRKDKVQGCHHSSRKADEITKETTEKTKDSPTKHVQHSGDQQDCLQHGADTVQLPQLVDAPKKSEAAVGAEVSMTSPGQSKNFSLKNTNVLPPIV

DYRK1A [4] = target: T1, DYRK1A; assay: DYRK1A-mediated Tau (T212) phosphorylation in transfected 293T cells, western blot; format: cell-based; design: expressed in transfected cells; host or cells: 293T cells; settings: 6 h treatment, western blot, estimated, read-out: IC50 on Tau phosphorylation (T212) induced by DYRK1A overexpression

| Compound | NFATc1-dependent transcriptional activation (NRE-Luc) suppressed by DYRK1A overexpression [1] | DYRK1A inhibitory activity compared with harmine (DYRK1A [2]) | concentration required for a similar rescue of wing (LV5) defect [3] [µM] | IC50 (DYRK3) [nM] | IC50 (DYRK4) [nM] | IC50 (DYRK1A [4]) [nM] |
| --- | --- | --- | --- | --- | --- | --- |
| CCN1/C(=C/C(C)=O)Sc2ccc(O)cc21 [INDY] | dose-dependently derepressed | slightly weaker inhibitory activities than harmine |  |  |  |  |
| COc1ccc2c(c1)[nH]c1c(C)nccc12 [harmine] | dose-dependently derepressed |  | 10 to 25 | 563 | 5880 |  |
| CCN1/C(=C/C(C)=O)Sc2ccc(OC(C)=O)cc21 [proINDY] | dose-dependently derepressed | slightly weaker inhibitory activities than harmine |  |  |  | ~2000 |
